Experimental data published in patent US20130041005A1, “PHARMACEUTICAL COMPOSITIONS COMPRISING NEUROPILIN INHIBITORS, AND THEIR USE FOR THE PREVENTION AND/OR TREATMENT OF ANGIOGENIC DISORDERS AND CANCERS” (TRAGEX PHARMA, priority 2011, published 2013).

Target: T1, NRP-1 (Homo sapiens, UniProt O14786)
T1 construct: purchased R&D Systems, UK 3870-N1-025
T1 sequence (O14786 22-644 isoform O14786-2 limits assumed): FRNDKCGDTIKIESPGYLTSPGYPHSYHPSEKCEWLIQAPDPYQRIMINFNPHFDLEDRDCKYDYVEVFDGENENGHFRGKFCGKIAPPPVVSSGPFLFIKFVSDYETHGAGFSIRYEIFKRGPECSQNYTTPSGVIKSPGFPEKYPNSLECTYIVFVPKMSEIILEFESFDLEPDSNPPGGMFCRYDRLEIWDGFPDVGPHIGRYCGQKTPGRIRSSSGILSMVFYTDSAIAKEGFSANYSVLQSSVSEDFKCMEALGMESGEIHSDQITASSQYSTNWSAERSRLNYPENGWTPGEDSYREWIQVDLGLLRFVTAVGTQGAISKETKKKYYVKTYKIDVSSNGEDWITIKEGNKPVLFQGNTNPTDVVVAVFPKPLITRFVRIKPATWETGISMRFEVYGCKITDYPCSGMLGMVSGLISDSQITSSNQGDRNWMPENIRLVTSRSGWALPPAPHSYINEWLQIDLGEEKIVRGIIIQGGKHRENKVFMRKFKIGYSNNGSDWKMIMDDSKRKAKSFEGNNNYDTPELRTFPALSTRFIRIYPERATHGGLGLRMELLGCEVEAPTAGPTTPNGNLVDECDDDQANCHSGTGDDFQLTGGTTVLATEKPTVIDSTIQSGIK
Assay: ELISA inhibition of VEGF binding to NRP-1
Settings: for inhibition at 10 µM: compounds at 10 μM
Procedure: Elisa test was performed covering a 96-well microplate (BD Biosciences, France, cat no 353046) surface with 100 μl of 1×PBS, pH 7.4 with Ca^2+ and Mg^2+, (Lonza, France, cat no 17-513F/12) solution containing 0.2 μg/ml of VEGF-R1 (R&D Systems, UK, cat no 321-FL-050/CF) or 2 μg/ml of NRP-1 (R&D Systems, UK, cat no 3870-N1-025) or NRP-2 (R&D Systems, UK, cat no […]). The plate was sealed and incubated overnight at 4° C. After 3 washes with 200 μl of 1×PBS 0.5% (v/v) Tween 20 (Sigma, France, cat no 34078) (Buffer A), the plate was blocked by adding 200 μl of 1×PBS with 0.5% (w/v) BSA (Eurobio, France, cat no GAUBSA01-65) and agitated at 37° C. for 2 h. After washing five times with Buffer A, 50 μl/well of the compounds of the invention at 10 μM were added for the specific signal and 50 μl/well for the non-specific and max binding signal and incubated at 37° C. for 1 hour, shacking. 50 μl of btVEGF (R&D Systems, UK, cat no NFVEO) at […] for NRP-1/4 μg/ml Heparin (Sigma, USA, cat no H3393-10KU), 300 μg/ml for NRP-2 and 100 μg/ml for VEGF-R1 solution was added to each well; the plate was sealed and incubated at 37° C. for 2 h, shacking. The last incubation was carried out, after five washes with Buffer A, adding 100 μl/well Streptavidin-Horseradish Peroxidase (Amersham, Switzerland, cat no RPN4401) diluted 1:8000 with buffer A. After 1 h shacking at 37° C. under obscurity, the plate was washed 5 times with buffer A and 100 μl of SuperSignal west picochemiluminescent substrate (Interchim, USA cat no 34078) were added. Luminescence was quantified with an EnVision™ 2101 Multilabel reader (Perkin Elmer, USA) and the data analyzed by Wallac Envision manager software. Signal is given as relative light units (RLU). Non-specific binding is defined as the signal measured in the absence of receptor coated on the microplate. The specific binding was calculated as the difference between total binding and non-specific binding. The percentage of inhibition was calculated as following: […]

Row | SMILES | IC50 [µM] | inhibition at 10 µM [%]
1 | Cc1ccc(-c2nc3ccccc3[nH]2)cc1NC(=S)NC(=O)c1ccc2c(c1)OCCO2 [Compound 1, N-[5-(1H-benzimidazol-2-yl)-2-methylphenyl]-N′-(2,3-dihydro-1,4-benzodioxin-6-ylcarbonyl)thiourea] | 38 ± 2.08 | 35 ± 4
2 | O=C(NC(=S)Nc1cccc(-c2nc3ccccc3[nH]2)c1)c1ccc2c(c1)OCCO2 [Compound 2, N-[3-(1H-benzimidazol-2-yl)phenyl]-N′-(2,3-dihydro-1,4-benzodioxin-6-ylcarbonyl)thiourea] | 34 ± 3.11 | 24 ± 2
